Test results taken from ChEMBL document CHEMBL5724696, “Autophagy assay results for EUbOPEN Chemogenomics Library” (2024).

System: TERT-RPE1
Experiment: Here: values are normalized to the negative (DMSO; defined as 0% autophagy induction) and positive (250nM Torin1; mTOR inhibitor; defined as maximal inducer of autophagy = 100%) control compounds and represented as % of autophagy induction. […] The impact of autophagy induction on cells is complex and depends on the affected target. As such, the magnitude of a phenotype may not be equally mirrored in the %-value of autophagy induction and vice versa. The dynamics of the induction may indicate the mode of activation: e.g. activation via phosphorylation or a signaling cascade may occur fast, while activation via transcription factors may take considerably longer. […] Of note, treatment concentrations may be sub-optimal for specific compounds, leading to false negative annotations.
Assay type: functional, Homo sapiens
Settings: Culturing Media DMEM/F12 (1:1), 1 % Penicillin/Streptomycin, 10% Fetal bovin serum Add-On: No, Screening Media Control DMEM/F12 (1:1), Screening Media Samples DMEM/F12 (1:1)
[1] = Compound Concentration 1 uM, Timepoint 12 hours
[2] = Compound Concentration 1 uM, Timepoint 24 hours
[3] = Compound Concentration 1 uM, Timepoint 36 hours
[4] = Compound Concentration 1 uM, Timepoint 60 hours

SMILES	autophagy induction [1] [%]	autophagy induction [2] [%]	autophagy induction [3] [%]	autophagy induction [4] [%]	also measured
CCCCCNC(=O)N1CCC(CN(Cc2ccc(Cl)cc2)Cc2ccc([N+](=O)[O-])s2)C1 (stereo not given) [SR9011]	-13.327	-1.26	19.5212	-21.0748	–
O=C(O)Cc1cc(I)c(Oc2ccc(O)c(I)c2)c(I)c1 [TIRATRICOL]	-9.01	-9.767	-3.577	11.3725	–
Cn1cc(C(=O)O)c2ccc(N3CCC(OCc4c(-c5c(Cl)cccc5Cl)noc4C4CC4)CC3)cc21 [TERN-101]	-2.759	-6.198	-6.322	3.921	–
CC[C@H]1[C@@H](O)[C@@H]2[C@H](CC[C@]3(C)[C@@H]([C@H](C)CCC(=O)O)CC[C@@H]23)[C@@]2(C)CC[C@@H](O)C[C@@H]12 [OBETICHOLIC ACID]	-8.507	-7.962	-3.9436	2.71	–
CC(C)(O)c1cn(-c2ccc(-c3cccc(S(C)(=O)=O)c3)cc2)c(C(C)(C)c2ccccc2Cl)n1 [BMS-779788]	-11.1228	-2.718	17.5149	-24.6575	–
O=c1[nH]c2ccccc2n1CCCN1CCN(C(c2ccccc2)c2ccccc2)CC1 [OXATOMIDE]	–	–	–	–	autophagy induction (Compound Concentration 10 uM, Timepoint 12 hours): 12.1676%; autophagy induction (Compound Concentration 10 uM, Timepoint 24 hours): 23.0166%; autophagy induction (Compound Concentration 10 uM, Timepoint 36 hours): 23.6799%; autophagy induction (Compound Concentration 10 uM, Timepoint 60 hours): -2.469%
CO[C@H]1/C=C/O[C@@]2(C)Oc3c(C)c(O)c4c(O)c(c(/C=N/N5CCN(C)CC5)c(O)c4c3C2=O)NC(=O)/C(C)=C\C=C\[C@H](C)[C@H](O)[C@@H](C)[C@@H](O)[C@@H](C)[C@H](OC(C)=O)[C@@H]1C [RIFAMPIN]	-6.53	-7.862	-4.147	5.829	–
COc1cc2c(cc1CC=C(C)C)C(=O)C[C@@H](c1ccc(O)cc1)O2 [BAVACHININ A]	-6.984	-10.3298	-14.6991	1.68	–
CCOP(=O)(OCC)C(=Cc1cc(C(C)(C)C)c(O)c(C(C)(C)C)c1)P(=O)(OCC)OCC	-14.535	-0.01812	17.6383	-21.9097	–
CC(C)c1cc(Oc2c(Cl)cc(-n3nc(C#N)c(=O)[nH]c3=O)cc2Cl)n[nH]c1=O [RESMETIROM]	-11.5681	0.0003786	17.8213	-19.2681	–
CC[C@H](C)C(=O)O[C@H]1C[C@@H](C)C=C2C=C[C@H](C)[C@H](CC[C@@H]3C[C@@H](O)CC(=O)O3)[C@H]21 [LOVASTATIN]	-7.01	13.8584	45.8036	48.5439	–
CC1(C)CCC(C)(C)c2cc(NC(=O)c3ccc(C(=O)O)cc3)ccc21 [TAMIBAROTENE]	-36.8107	-29.3713	-7.633	34.9259	–
CCOC(=O)c1ccc(C#Cc2ccc3c(c2)C(C)(C)CCS3)nc1 [TAZAROTENE]	-17.2771	-27.562	-16.2551	40.4791	–
Cc1oc2ccccc2c1Cc1cc(I)c(OCC(=O)O)c(I)c1	–	–	–	–	autophagy induction (Compound Concentration 3 uM, Timepoint 12 hours): -1.169%; autophagy induction (Compound Concentration 3 uM, Timepoint 24 hours): 9.702%; autophagy induction (Compound Concentration 3 uM, Timepoint 36 hours): 19.9109%; autophagy induction (Compound Concentration 3 uM, Timepoint 60 hours): -4.505%
CC(C)(C[C@H]1CN(S(=O)(=O)c2cccc(C(F)(F)F)c2)c2cc(-c3cc(F)cc(OC(F)F)c3)ccc2O1)C(=O)O [CINTIRORGON]	-13.5912	-2.372	17.7364	-18.8569	–
O=C(Nc1ccc(C(O)(C(F)(F)F)C(F)(F)F)cc1)c1ccc(C(F)(F)F)cc1	1.9218	1.011	4.384	2.099	–
N[C@@H](Cc1cc(I)c(Oc2ccc(O)c(I)c2)c(I)c1)C(=O)O [LIOTHYRONINE]	142.376	-11.4171	8.172	-7.587	–
CN(CCOc1ccc(C[C@H](Nc2ccccc2C(=O)c2ccccc2)C(=O)O)cc1)c1ccccn1.O	-1.212	-2.25	0.5142	-9.85	–
CCOC(=O)Nc1ccc2c(c1)N(C(=O)CN(CC)CC)c1ccccc1CC2	-0.6682	2.4649	6.3561	1.708	–
Clc1ccc(-c2nc3sccn3c2/C=N/OCc2ccc(Cl)c(Cl)c2)cc1	-153.599	-9.053	9.503	-19.9955	–
CCO[C@@H](Cc1ccc(OCCc2ccc(OS(C)(=O)=O)cc2)cc1)C(=O)O [TESAGLITAZAR]	-2.81	-1.872	4.96	2.851	–
C[C@H]1[C@H]2CC[C@H]3[C@@H]4CC=C5C[C@@H](N(C)C)CC[C@]5(C)[C@H]4CC[C@]23CN1C [CONESSINE]	-9.079	-15.7832	-16.9143	14.1244	–
CCCCCCCN(CCc1ccc(SC(C)(C)C(=O)O)cc1)C(=O)Nc1ccc(F)cc1F [GSK-9578]	-3.328	-4.346	-1.192	-5.756	–
CC(C)c1onc(-c2c(Cl)cccc2Cl)c1COc1ccc(/C=C/c2cccc(C(=O)O)c2)c(Cl)c1	-17.7139	-8.477	8.951	-22.8602	–
CCOC(=O)C1Cc2ccccc2CN1C(=O)c1ccc(SC)s1 (stereo not given)	141.578	-7.836	8.933	-16.4137	–
OC(c1ccc(-c2ccc(CN3CCN(Cc4ccncc4)CC3)cc2)c(F)c1)(C(F)(F)F)C(F)(F)F	-2.122	-7.771	-2.839	2.172	–
Cc1cc(SCc2sc(-c3ccc(C(F)(F)F)c(F)c3)nc2C)ccc1OCC(=O)O	-0.9501	-2.27	3.329	-6.099	–
C=C1/C(=C\C=C2/CCC[C@]3(C)[C@@H]([C@H](C)CCCC(C)(C)O)CC[C@@H]23)C[C@@H](O)C[C@@H]1O [CALCITRIOL]	36.7455	-4.807	11.5028	-14.2726	–
CC1(C)CCC(C)(C)c2cc(C(=O)Nc3ccc(C(=O)O)cc3)ccc21	-16.8061	-23.3221	-14.7294	28.5347	–
O=C(O)c1ccc2cc(-c3ccc(O)c(C45CC6CC(CC(C6)C4)C5)c3)ccc2c1 [O-DEMETHYLATED ADAPALENE]	-7.665	-12.7242	-13.449	12.49	–
